Source: patent US20080070917A1, “METHODS FOR ADMINISTERING LEVOSIMENDAN” (priority 2005, published 2008)
Like-named read-outs stand apart in the source and are kept apart here.

What was measured:
[1] = system: patients with New York Heart Association functional class II to III heart failure; test: Double-blind, placebo-controlled study of a 24-hour levosimendan infusion in heart failure patients; assay type: in vivo, human
Experimental: A double-blind, placebo-controlled, parallel group, single center study in patients with New York Heart Association functional class II to III heart failure was conducted. Patients were randomised in 1:1 ratio to receive either levosimendan or placebo. Study drug administration was initiated with a loading dose of 12 μg/kg of levosimendan or placebo delivered over 10 minutes. This was followed by a continuous infusion of 0.1 μg/kg/min for 50 minutes. If the dose was well tolerated the infusion rate was increased to 0.2 μg/kg/min for a further 23 hours. After the study drug was started, the hemodynamic assessments were repeated at 30 minutes, at two and six hours. The non-invasive hemodynamic assessments were repeated at 24-hours. Follow-up visits took place at 2, 3, 5, 7, 9 and 14 days from the beginning of the study. On these visits echocardiographic measurements were performed and blood pressure and heart rate were measured.
An Acuson Sequoia ultrasound system with 2.5-3.75 MHz probes was used for the Doppler echocardiographic measurements. Blood flow velocity curves were recorded at a sweep speed of 100 mm/s. Left ventricular ejection fraction was assessed by two-dimensional apical two- and four-chamber views with use of modified Simpson rule. Mitral flow velocity was assessed by pulsed wave Doppler from the apical four-chamber view by placing a 3-mm sample volume between the tip of the mitral leaflets in diastole. The following measurements were made over five consecutive cycles: maximal early and maximal late diastolic velocity and their ratio, duration of the late diastolic velocity wave, deceleration time and deceleration rate of early diastolic velocity. Peak velocities were defined as the highest point of the spectrum.
Blood samples (4 ml) for natriuretic peptide (NT-proANP, NT-proBNP) measurements were taken into pre-cooled EDTA tubes. Samples were taken at baseline (0-sample) and on the first study day 30 min, 2 h, 6h and 24 h after the start of the infusion and in the mornings of days 2, 3, 5, 7, 9 and 14 after the start of the study drug infusion.

CHF patients = test: PK-PD meta-analysis (NONMEM, Emax model) of eight studies in CHF patients; assay type: in vivo, human; conditions: for EC50: Homo sapiens, effective concentration (composite of levosimendan, OR-1855, OR-1896)
Experimental: Data from eight studies (Studies 300102, 300103, 300105, 3001022, 3001024, 3001040, 3001058 (Group 1 and 2) and 3001058 (Group 4)) (335 CHF patients) were combined to generate the PK-PD dataset. Dose regimens included infusions of various doses (0.25-70.6 mg) and infusion durations (5 min-7 days), with or without an initial loading dose. In addition to plasma concentration-time data the PD variables utilized in the PK-PD evaluation were PCWP, CI, HR, SBP, and DBP.
Population PK models were built using a non-linear mixed-effect population modelling approach with the NONMEM software. The sequence of modelling was such that levosimendan PK was modelled first. Then the levosimendan portion of the full PK model was fixed, and individual PK parameters were carried forward in order to simultaneously model the metabolites PK. In the PK model it was assumed that levosimendan is fully metabolized to OR-1855, which is further metabolized to OR-1896. A gut compartment with first-order input from the levosimendan compartment and first-order output to the OR 1855 compartment was incorporated to account for the considerable delay between levosimendan elimination and metabolite appearance. This delay represents transport of levosimendan from plasma to gut and further transit to colon, metabolism of levosimendan to OR-1855 in the colon, and the subsequent absorption of OR-1855 from the colon. Elimination of the metabolites and inter-conversion between the two metabolites were modelled as first-order processes (See, FIG. 1). A mixture model allowing different inter-conversion rates for slow and rapid acetylators was beneficial in describing the data.
Covariates (fixed effects) such as demographic characteristics and patient attributes, for e.g. ejection fraction (EF), New York Heart Association classification (NYHA), serum bilirubin, and creatinine clearance etc. were tested individually in a stepwise method. The intra-subject effects or residual error was modelled as additive, proportional (constant coefficient of variation) or combination of the two for the PK model. The inter-subject effects were modelled as exponential error model.
The full PK models for levosimendan and its metabolites were fixed for the PD modelling. For each individual, plasma concentrations were calculated using the post-hoc PK parameter estimates for that individual. A maximal drug effect (Emax) model described by the following general equation was used to describe the relation between the estimated concentrations of drug and metabolites, and effect. E=Emax*Ceff/(EC50+Ceff) • Where: Ceff is the apparent effective concentration in the hypothetical effect compartment that may be a composite of drug and metabolite concentrations; EC50 is the effective concentration required to achieve 50% of Emax.
The equilibration rate constant (ke0) controls the time delay between the time courses of levosimendan concentration in the central compartment (Cp) and levosimendan concentration in the effect compartment (Clevo), and is expressed as dClevo/dT=ke0·(Cp−Clevo).
The contributions of the drug and the metabolites to the PD effects were modeled using a competitive agonist model that assumed same efficacy (Emax), but different potencies (EC50) for different compounds. A potency factor (RP) accounted for differences in potency and protein binding relative to levosimendan. […] Ceff=Clevo+RP1·COR-1855+RP2·COR-1896
Where RP1 and RP2 are the potencies of OR-1855 and OR-1896 relative to levosimendan, respectively.
The drug response was modelled as the absolute change from baseline and as the fractional change from baseline. The non-drug response was modelled either as a time dependent function or as an instantaneous response based on the following equations.
Where SSS is the maximum non-drug-related response. The exponent “a” represents the rate of onset of the non-drug response over time. […]

Unbound plasma fraction = assay type: in vitro ADME
[2] = system: subjects hospitalized with acute decompensation of heart failure; test: Phase 3, double-blind, placebo-controlled study in acute decompensation of heart failure (Example 5); assay type: in vivo, human
Experimental: This was a Phase 3, double-blind, placebo-controlled, parallel-group study in subjects hospitalized with a primary or secondary admitting diagnosis of acute decompensation of heart failure. The treatment period was up to 24 hours for each subject with at least 90 days follow-up after the start of the study drug infusion. All baseline medications (including use of beta-blockers and other medications) were recorded for each patient. The study evaluated hospitalized subjects (n=600) with a primary or secondary admitting diagnosis of worsening heart failure, with symptoms at rest despite treatment with IV diuretic therapy. […] Infusion rates for background therapy of continuous IV diuretics, inotropes and vasodilators had to have been unchanged for at least two hours prior to the baseline evaluation. Left ventricular ejection fraction (EF) was required to be less than or equal to 35% as assessed within the previous 12 months. Subjects were randomized to either levosimendan (n=299) or placebo (n=301) in addition to standard-of-care. Levosimendan treatment was initiated with a total loading dose of […] administered over 10 minutes (6 mg/kg for subjects on concomitant IV vasodilators or inotropes at the start of the study drug infusion) followed by a continuous infusion of […] for the following 50 minutes. If the dose was well tolerated, the infusion rate was increased to 0.2 mg/kg/min for a further 23 hours. If the higher dose was not well tolerated it was reduced to […] and then further to 0.05 mg/kg/min if required. On completion of 24 hours the infusion is turned off abruptly.
The primary objective of this study was to compare the efficacy between levosimendan and placebo treatments using the clinical composite endpoint (CCE) incorporating a subject reported PGA at 6 hours, 24 hours and Day 5, combined with clinical criteria for worsening heart failure through 5 days after the start of study drug infusion. In contrast to REVIVE I, the was CCE included a PGA at 6 hours as part of the primary endpoint and diuretics at any time during the 5 day assessment period were included as rescue therapy.
Episodes of worsening heart failure treated with a rescue therapy were collected during the initial hospitalization until Day 5 or discharge whichever was later. Safety parameters such as adverse events (AEs), HR, […] (BP), routine laboratory tests, and ECG were monitored frequently up to 31 days, with hospitalization and mortality extended to 90 days after start of study drug infusion. Survival was monitored for all randomized subjects from Day 90 until the last subject underwent the final scheduled visit.

Structure (SMILES): C[C@@H]1CC(=O)NN=C1c1ccc(NN=C(C#N)C#N)cc1 [levosimendan, (−)-enantiomer of [[4-(1,4,5,6-tetrahydro-4-methyl-6-oxo-3-pyridazinyl)phenyl]hydrazono]propanedinitrile]
- Maintenance of beneficial hemodynamic and neurohormonal effects ([1]; after levosimendan administration): up to two weeks
- Time of lowest echocardiographically estimated PCWP ([1]; after starting the infusion): 2 days
- Day of lowest plasma NT-proANP level ([1]; human, in vivo): 3 days
- Day of lowest plasma NT-proBNP level ([1]; human, in vivo): 2 days
- Duration of treatment effect on NT-proANP, linear model ([1]; human, in vivo): 16 days
- Duration of treatment effect on NT-proBNP, linear model ([1]; human, in vivo): 12 days
- Time of highest CO value estimated by echocardiography ([1]; human, in vivo): at the end of the 24-hour infusion
- EC50 (CHF patients; read-out: Post-hoc Mean EC50, CI): 0.09 µg/mL
- EC50 (CHF patients; read-out: Post-hoc Mean EC50, DBP): 0.154 µg/mL
- EC50 (CHF patients; read-out: Post-hoc Mean EC50, HR): 0.198 µg/mL
- EC50 (CHF patients; read-out: Post-hoc Mean EC50, PCWP): 0.0511 µg/mL
- EC50 (CHF patients; read-out: Post-hoc Mean EC50, SBP): 0.047 µg/mL
- Post-hoc Mean Emax, CI (CHF patients; baseline mean 2.21): 1.15 L/m^2/min
- Post-hoc Mean Emax, PCWP (CHF patients; baseline mean 20.8): −7.8 mmHg
- Post-hoc Mean Emax, DBP (CHF patients; baseline mean 71): −13.3 mmHg
- Post-hoc Mean Emax, HR (CHF patients; baseline mean 76): 18 Bpm
- Post-hoc Mean Emax, SBP (CHF patients; baseline mean 118): −7.1 mmHg
- Unbound plasma fraction (Unbound plasma fraction): 0.025
- Proportion of patients reporting moderate to marked improvement in dyspnea ([2]; at 6 hours (91/299), placebo/SOC 25.2%): 30.4%
- Improvement in self assessment (PGA) compared to placebo/SOC ([2]; beta-blocked patients, over the first 5 days, p=0.001): significantly greater improvement
- Improvement in self assessment (dyspnea) compared to placebo/SOC ([2]; over the first 5 days, p=0.018): significantly greater improvement
- Proportion of patients reporting moderate to marked improvement in PGA ([2]; overall population, at 6 hours (85/299), placebo/SOC 23.9%): 28.4%
- Improvement in PGA compared to placebo/SOC ([2]; overall population, over 5 days, p=0.002): significantly greater improvement
- Difference in PGA improvement compared to placebo/SOC ([2]; patients not receiving beta-blocker therapy (n=96)): not statistically significant
- Difference in dyspnea improvement between treatment groups ([2]; patients not receiving beta-blocker therapy, first 5 days): not statistically significant
- Proportion reporting moderate to marked improvements in dyspnea compared to placebo/SOC ([2]; patients receiving a beta-blocker at baseline, at 6 hours): greater proportion
- Proportion of patients reporting moderate to marked improvements in PGA ([2]; patients receiving a beta-blocker at baseline, at 6 hours, placebo/SOC 34%): 44%
- Improvement in dyspnea compared to placebo/SOC ([2]; patients receiving beta-blockers, over the first 5 days, p=0.0016): significantly greater improvement
- Other secondary endpoints, except 90-day mortality ([2]; versus placebo): trended in favor of levosimendan but did not reach statistical significance
